Results from patent publication US20260232603A1, “A METHOD OF PREPARING AN AQUEOUS DISPERSION OF NANOPARTICLES” (IQ MEDICAL GMBH, priority 2023, published 2026).
≈ marks a conversion by molar mass, not a printed value. Where two headings read alike, the source gives them in different places.

What was measured:
[1] = Table 8, cited from earlier work; for pKa: first value where several are printed
[2] = Saturation solubility of sirolimus in selected solvents; format: physicochemical; settings: thermodynamic from solid, room temperature, HPLC of supernatant
Protocol: One task is the production of a highly concentrated dispersion. The prerequisite for this is the use of a solvent for the production of the dispersion in which the active substance has a high solubility. […] Crystalline active ingredient was added to a defined amount of solvent at room temperature while stirring until an insoluble sediment was formed.

[3] = Pharmacokinetics of sirolimus encapsulated in E100, sublingual, rats (2022NCM001); format: in vivo, Sprague Dawley rats; settings: 5 mg per kg
Protocol: Naïve, adult male Sprague Dawley rats of around 300 g body weight were housed in a separate temperature-controlled room (20-24° C.) and maintained in a 12 h light/12 h dark cycle. Food and water were available ad libitum throughout the duration of the study.
Formulation was freshly prepared on the day of application. It was administered sublingually to each animal at a dose of 5 mg per kg body weight.
For sublingual administration, rats were shortly anaesthetized with isoflurane. Prior to application, the sublingual area was blotted dry with cotton swabs. The appropriate volume of the formulation was applied under the tongue with a pipette. The animals were kept in a sitting position for 5 minutes. After 5 minutes the area under the tongue was blotted dry again to avoid oral administration of the remaining suspension. Then the animals were placed into the cage until recovery.
Blood samples were collected by puncture of the lateral tail vein at the following time points: predose, 15 min, 30 min, 1 h, 2 h, 4 h, 8 h and 24 h post dose. At each of the designated time points 20 μl blood was collected from the tail vein into K3-EDTA capillaries (Minivette POCT, […]). The blood samples were transferred into polypropylene tubes and frozen on dry ice within 1-2 min. of sampling and stored at −20° C. until LC-MS analysis. […]

[4] = cited from earlier work
[5] = Pharmacokinetics of two sirolimus E100 nanoformulations, sublingual cross-over, rats (2022NCM002); format: in vivo; settings: two nanoparticular formulations (FLM04_025, FLM02_b230)
Protocol: To eliminate the inter-individual variability, the same animals were administered in an intra-individual two-way cross-over after an appropriate washout period.
Two different approaches were followed in that a surfactant was included either during precipitation (FLM04_025) or after precipitation (FLM02_b230) as shown in FIG. 32.
Formulations were freshly prepared on the day of application using the procedure as described herein.
Test item formulations were administered sublingual to animals with 7 days wash-out intervals at a […] per kg body weight. Application procedure, blood sampling and their as quantification was as described before.

[6] = Pharmacokinetics of tacrolimus encapsulated in E100, sublingual cross-over, rats (2022NCM003); format: in vivo, Sprague Dawley rats; settings: 5 mg per kg
Protocol: The pharmacokinetic profile of three different nanoparticular formulations of Tacrolimus after sublingual administration in five naïve male Sprague Dawley rats with 14 days wash-out interval was evaluated. To eliminate the inter-individual variability, the same animals were administered in an intra-individual three-way cross-over after washout period. The animals were housed in a separate temperature-controlled room (20-24° C.) and maintained in a 12 h light/12 h dark cycle. Food and water were available ad libitum throughout the duration of the study.
Formulations were freshly prepared on the day of application using the procedure described herein and administered freshly after arrival.
Dose (and applied volume of the nanosuspension) was adjusted individually to the body weight of the animal.
Test item formulations were administered sublingual to 5 animals with […] wash-out intervals at a dose of 5 mg per kg body weight. Application procedure and blood sampling was as described before.
Tacrolimus whole blood concentrations were analysed by LC-MS/MS and Cmax, tmax, and AUC were calculated.
Preparation of working solutions for calibration standards and quality controls Individual stock solutions were used for preparation of calibration standards and quality control samples (QCs).
All samples were kept on ice until the addition of the precipitation reagent. […]

[7] = nanoparticular dispersion based on Eudragit E100, rats

In the case of `O=C(O)CC(O)C(=O)O` (stereo not drawn) [Malic acid], the Water solubility [1] is given as 218 mg/mL and the pKa [1] is given as 3.2.

Molecule `CO[C@H]1C[C@@H]2CC[C@@H](C)[C@@](O)(O2)C(=O)C(=O)N2CCCC[C@H]2C(=O)O[C@H]([C@H](C)C[C@@H]2CC[C@@H](O)[C@H](OC)C2)CC(=O)[C@H](C)/C=C(\C)[C@@H](O)[C@@H](OC)C(=O)[C@H](C)C[C@H](C)/C=C/C=C/C=C/1C` [sirolimus] has a solubility ([2]; acetone, organic solvent or mixture, saturation solubility in Acetone (polar aprotic)) of at least 200 mg/mL, a solubility ([2]; ethanol, organic solvent or mixture, saturation solubility in Ethanol (polar protic)) of 179 mg/mL (≈ 196 mM) and a solubility ([2]; iso-propanol, organic solvent or mixture, saturation solubility in iso-Propanol (polar protic)) of 25 mg/mL (≈ 27.3 mM). For the same molecule, the solubility ([2]; methanol, organic solvent or mixture, saturation solubility in Methanol (polar protic)) was 246 mg/mL (≈ 269 mM), the solubility ([2]; water, saturation solubility in Water (polar protic)) was about 0.001 mg/mL (≈ 0.00109 mM) and the “time of maximum concentration (t_max)” value ([3]; 5 min application, nanoparticular dispersion based on Eudragit E100, blood, rats) was 30 min. For the same molecule, the “detection in blood after sublingual administration” value (from here on “detection in blood”) [3, 7] was “detected in the blood of all rats”, the “Log P” value [4] was 4.56 and the “detection in blood” value [5] was “detected in the blood of all rats”.

For `CCC(C)n1ncn(-c2ccc(N3CCN(c4ccc(OCC5COC(Cn6cncn6)(c6ccc(Cl)cc6Cl)O5)cc4)CC3)cc2)c1=O` (stereo not drawn) [Itraconazole], the “Log P” value [4] is listed as 5.66 and the Water solubility [4] is listed as 0.0096 mg/mL.

In the case of `CCCCCCCC/C=C\CCCCCCCC(=O)O` [Oleic Acid], the Water solubility [1] is given as 0.0001 mg/mL.

For `CCCCCCCC(=O)O` [Octanoic Acid], the pKa [1] is given as 5.19.

In the case of `CCCCC(=O)O` [Valeric acid], the Water solubility [1] is listed as 40 mg/mL and the pKa [1] is listed as 5.01.

For `CCCCCCCCCCCCCCCCCC(=O)O` [Stearic Acid], the pKa [1] is given as 4.95.

In the case of `C=CC[C@@H]1/C=C(\C)C[C@H](C)C[C@H](OC)[C@H]2O[C@@](O)(C(=O)C(=O)N3CCCC[C@H]3C(=O)O[C@H](/C(C)=C/[C@@H]3CC[C@@H](O)[C@H](OC)C3)[C@H](C)[C@@H](O)CC1=O)[C@H](C)C[C@@H]2OC` [Tacrolimus], the “Log P” value [4] is given as 4.5, the “detection in blood” value [6, 7] is given as “detected in the blood of all rats” and the “time of maximum concentration (t_max)” value ([6]; nanoparticular dispersion based on Eudragit E100, whole blood, rats) is given as 30 min.
